# Measurements published in the supplement of paper PMC4862054.
# Key:
# Assay in all cases: drug sensitivity score (DSS), CellTox Green (DSS (AUC-based score)); higher = stronger drug effect (viability inhibition or cytotoxicity); extreme values may be limits of the assay
# Conditions in all cases: incubation time: 72 h
# MDA-MB-436 = tested on: MDA-MB-436
# How it was run: (§1)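 Using 20 µl of cell suspension per well, breast cancer cell lines were seeded into 384-well plates pre-loaded with compound at 5 concentrations in 10-fold steps across a compound-specific 10,000-fold range. Incubation lasted 72 h, after which CellTox Green fluorescence at 485/520 nm and then CellTiter-Glo luminescence, following 10 min at room temperature, were recorded. Each plate was normalised to 0.1 % DMSO and a positive kill control before the drug sensitivity score was derived from the area under the fitted dose-response curve.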
# BT-549 = tested on: BT-549
# How it was run: as §1
# MDA-MB-468 = tested on: MDA-MB-468
# How it was run: as §1
# MDA-MB-231 = tested on: MDA-MB-231
# How it was run: as §1
# MCF-10A = tested on: MCF-10A
# How it was run: as §1
# HCC1937 = tested on: HCC1937
# How it was run: as §1
# HDQ-P1 = tested on: HDQ-P1
# How it was run: as §1
# CAL-120 = tested on: CAL-120
# How it was run: as §1
# MDA-MB-453 = tested on: MDA-MB-453
# How it was run: as §1
# CAL-85-1 = tested on: CAL-85-1
# How it was run: as §1
# CAL-148 = tested on: CAL-148
# How it was run: as §1
# BT-474 = tested on: BT-474
# How it was run: as §1
# HCC1143 = tested on: HCC1143
# How it was run: as §1
# CAL-51 = tested on: CAL-51
# How it was run: as §1
# MFM-223 = tested on: MFM-223
# How it was run: as §1
# HCC1599 = tested on: HCC1599
# How it was run: as §1
# Hs578T = tested on: Hs578T
# How it was run: as §1
# DU-4475 = tested on: DU-4475
# How it was run: as §1
SMILES,drug sensitivity score (MDA-MB-436),drug sensitivity score (BT-549),drug sensitivity score (MDA-MB-468),drug sensitivity score (MDA-MB-231),drug sensitivity score (MCF-10A),drug sensitivity score (HCC1937),drug sensitivity score (HDQ-P1),drug sensitivity score (CAL-120),drug sensitivity score (MDA-MB-453),drug sensitivity score (CAL-85-1),drug sensitivity score (CAL-148),drug sensitivity score (BT-474),drug sensitivity score (HCC1143),drug sensitivity score (CAL-51),drug sensitivity score (MFM-223),drug sensitivity score (HCC1599),drug sensitivity score (Hs578T),drug sensitivity score (DU-4475)
Cn1cc(C[C@@H](N)C(=O)O)c2ccccc21 [1-methyl-D-tryptophan],0,0,1.22,0,0,0,1.12,0,0,0,0,0,0,0,0,0,3.13,0
CC[C@H](CC#N)OC(=O)N[C@@H](C)c1cccc(NC(=O)Nc2ccc(-c3cnco3)c(OC)c2)c1 [AVN944],0,0,0,0,0,0,0,0,0,0,0,0,0,5.68,0,0,12.6,0
Cc1cc2c(F)c(Oc3ncnn4cc(OC[C@@H](C)O)c(C)c34)ccc2[nH]1 [Brivanib],2.68,0,0,0,0,0,0,0,0,0.499,0,0,0,0,0,0,0,0
CC(C)C[C@H](NC(=O)[C@H](CCc1ccccc1)NC(=O)CN1CCOCC1)C(=O)N[C@@H](Cc1ccccc1)C(=O)N[C@@H](CC(C)C)C(=O)[C@@]1(C)CO1 [Carfilzomib],19.2,8.43,37.2,24.1,9.99,18.4,19.1,17.2,0,24.8,19,8.3,0,24.4,14.4,0,16.7,0
Nc1nc(Cl)nc2c1ncn2[C@@H]1O[C@H](CO)[C@@H](O)[C@@H]1F [Clofarabine],0,0,0.395,0,0,0,0,0,0,3.72,7.09,0,0,16.7,0,0,0,0
C[C@@H]1C[C@H]2[C@@H]3CCC4=CC(=O)C=C[C@]4(C)[C@@]3(F)[C@@H](O)C[C@]2(C)[C@@]1(O)C(=O)CO [Dexamethasone],0,0,0,0,3.19,0,0,0,0,0,0,0,0,0,0,0,1.94,0
CCc1cnn2c(NCc3ccc[n+]([O-])c3)cc(N3CCCC[C@H]3CCO)nc12 [Dinaciclib],0,0,19.6,25.4,6.99,0,11.4,1.4,0,18.4,9.14,3.72,0,8.81,13.1,5.57,12.4,0
Cc1c(C(=O)Nc2ccc(N3C[C@@H](C)O[C@@H](C)C3)nc2)cccc1-c1ccc(OC(F)(F)F)cc1 [Erismodegib],0,0,0,0.0859,0,0,0,0,0,0,2.18,0,0,0,0,0,0,0
COc1cc2c(Oc3ccc(NC(=O)C4(C(=O)Nc5ccc(F)cc5)CC4)cc3F)ccnc2cc1OCCCN1CCOCC1 [Foretinib],0,0,3.1,10.4,0,0,0,0,0,0,1.71,0,1.04,4.29,0,0,2.65,0
CC(C)NC[C@@H](C(=O)N1CCN(c2ncnc3c2[C@H](C)C[C@H]3O)CC1)c1ccc(Cl)cc1 [GDC-0068],0,0,3.49,0,0,0,0.469,0,0,0,14.1,0.545,0,2.24,1.29,0,0,0
CCCc1cc(C)[nH]c(=O)c1CNC(=O)c1cc(-c2ccnc(N3CCN(C)CC3)c2)cc2c1cnn2C(C)C [GSK343],0,0,0,7.22,0,0,0,0,6.47,2.18,0,5.28,0,0,7.62,1.18,4.43,0
COc1cc2c(cc1-c1c(C)noc1C)ncc1[nH]c(=O)n([C@H](C)c3ccccn3)c12 [I-BET151],1.57,0,5.63,1.07,2.02,0,5.77,0,0,5.11,0,0,0,4.63,0,0,0,0.559
CC(C)n1nc(-c2ccc3oc(N)nc3c2)c2c(N)ncnc21 [INK128],0,0,0,0,0,0,0,0,0,0,8.35,0,0,1.08,3.35,0,10.3,0
O=NN(CCCl)C(=O)NC1CCCCC1 [Lomustine],0,0,0,,0,0,0,0,0,0,0,0,0,0,0,0,0,0
NC1(c2ccc(-c3nc4ccn5c(=O)[nH]nc5c4cc3-c3ccccc3)cc2)CCC1 [MK-2206],0,0,0,0,0,0,0,0,0,0,3.64,0,0,0,0,0,0,0
NC(=O)c1cccc2cn(-c3ccc([C@@H]4CCCNC4)cc3)nc12 [MK-4827],0,0,0,0,0,,0,0,0,2.02,0,0,0,3.35,0,0,0,0
N[C@@H](Cc1ccc(N(CCCl)CCCl)cc1)C(=O)O [Melphalan],8.42,13.4,19.7,23.9,19.3,15.4,18.4,9.72,16.9,18.1,18.5,18.1,7.18,21.7,16.5,11.8,12.4,11.5
CO[C@H](C(=O)[C@@H](O)[C@@H](C)O)[C@@H]1Cc2cc3cc(O[C@H]4C[C@@H](O[C@@H]5C[C@@H](O)[C@H](O)[C@@H](C)O5)[C@H](O)[C@@H](C)O4)c(C)c(O)c3c(O)c2C(=O)[C@H]1O[C@H]1C[C@@H](O[C@@H]2C[C@@H](O)[C@@H](O[C@@H]3C[C@](C)(O)[C@H](O)[C@@H](C)O3)[C@@H](C)O2)[C@H](O)[C@@H](C)O1 [Plicamycin],0,0,9.57,0,6.07,0,0,0,1.33,1.48,0,0,0,7.69,0,0,1.28,0
CO[C@H]1C[C@@H]2CC[C@@H](C)[C@@](O)(O2)C(=O)C(=O)N2CCCC[C@H]2C(=O)O[C@H]([C@H](C)C[C@@H]2CC[C@@H](O)[C@H](OC)C2)CC(=O)[C@H](C)/C=C(\C)[C@@H](O)[C@@H](OC)C(=O)[C@H](C)C[C@H](C)/C=C/C=C/C=C/1C [Sirolimus],0,0,0,0,0,1.4,0,0,0,0,0,0,0,0,0,0,0,0
CC/C(=C(\c1ccccc1)c1ccc(OCCN(C)C)cc1)c1ccccc1 [Tamoxifen],1.29,0,3.42,3.47,0,17.1,0,0,1.55,1.12,0,4.12,0,0,0,0,0,0
